According to patent US7795226B2, “Control of radiation injury” (Biotempt B.V., priority 2006, dated 2010):
Several values for one entry are separate records, joined by “and”; a condition that tells them apart may be missing. Equal entries are not always repeated.

Legend:
Type in all cases: in vivo
[1] = tested on: renal ischemia reperfusion in mice; test: mouse renal ischemia reperfusion test; set-up: BUN after 25 minutes renal ischemia, mean / Urea levels in dose-response experiment: unit not given here
Outline: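 In anesthetized mice kept at 37° C, the left renal pedicle was clamped for 25 min and the right kidney removed after reperfusion. Peptide in saline was given i.v. (5 mg/kg; other series 0.3–30 mg/kg) 5 min before clamping and 5 min before release, with PBS as control. Mortality and BUN were measured at 2, 24 and 72 h; P values were calculated by Mann-Whitney U-test.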

[2] = tested on: LPS (E. coli 026:B6)-induced septic shock in BALB/c mice; test: LPS-induced septic shock, single dose of peptide
Method: (§1) Mice used in sepsis or septic shock experiments: Female BALB/c mice of eight to twelve weeks of age were used for all experiments. The animals were bred in our facility under specific pathogen-free conditions according to the protocols described in the […] of European Laboratory Animal Science Associations (FELASA) Working group on Animal Health (Laboratory Animals 28:1-24, 1994).
(§2) Injection protocols: For the endotoxin model, BALB/c mice were injected i.p. with 150-300 μg LPS (E. coli 026:B6; Difco Lab., Detroit, Mich., USA). Control groups were treated with PBS i.p. only. To test the effect of peptides, they were dissolved in PBS and injected i.p. at predetermined points in time after LPS treatment.
Mice were scored for sickness severity using the following measurement scheme: • 0 No abnormalities. • 1 Percolated fur, but no detectable behavior differences compared to normal mice. • 2 Percolated fur, huddle reflex, responds to stimuli (such as tap on cage), just as active during handling as healthy mouse. • 3 Slower response to tap on cage, passive or docile when handled, but still curious when alone in a new setting. • 4 Lack of curiosity, little or no response to stimuli, quite immobile. • 5 Labored breathing, inability or slow to self-right after being rolled onto back (moribund, sacrificed). • D Dead.
A first set of septic shock experiments were set up to determine which of the peptides LQG, LQGV (SEQ ID NO:117), VLPALP (SEQ ID NO:140), VLPALPQ (SEQ ID NO:143), MTR, MTRV (SEQ ID NO:119), VVC or QVVC (SEQ ID NO:118) were capable of inhibiting lipopolysaccharide (LPS)-induced septic shock in mice by treating mice with a single dose of peptide at two hours after LPS treatment. Peptides were used at 5 mg/kg bodyweight. BALB/c mice were injected i.p. with escalating doses LPS (E. coli 026:B6; Difco Lab., Detroit, Mich. USA), predetermined to be leading to 80 to 100% mortality in 24 to 72 hours.
To test the effect of peptide early in the development of shock, mice were treated at two hours or at 24 hours after treatment with varying doses of LPS by i.p. injection with test peptide at 5 mg/kg bodyweight.

[3] = tested on: LPS (E. coli 026:B6)-induced sepsis in BALB/c mice; test: endotoxin shock survival after early or late treatment with peptide
Method: as §1, §2
A further set of septic shock experiments were set up to determine which of the peptides LQG, LQGV (SEQ ID NO:117), VLPALP (SEQ ID NO:140), VLPALPQ (SEQ ID NO:143), MTR, MTRV (SEQ ID NO:119), VVC or AQGV (SEQ ID NO:120) under study were most suited to be used early and/or late after or throughout the development of shock. For determining the percent of endotoxin shock survival after late or early treatment with peptide, BALB/c mice were injected i.p. with 300 μg LPS (E. coli 026:B6; Difco Lab., Detroit, Mich. USA), predetermined to be leading to 100% mortality in 48 hours without peptide treatment.
To evaluate the effect of peptide treatment at an early or late point in time of development of shock, mice were treated at two hours or at 24 hours after LPS injection by i.p. injection with test peptide at 5 mg/kg bodyweight. The mice were followed for 84 hours instead of for 48 hours in the earlier experiments.

[4] = 2 hours after reperfusion, 5 mg/kg i.v.
[5] = 24 hours after reperfusion, 5 mg/kg i.v.
[6] = 72 hours after reperfusion, 5 mg/kg i.v.
[7] = t = 0 hr (before clamping), 5 mg/kg i.v.
[8] = LPS dose 7**, single dose 5 mg/kg
[9] = LPS dose 7*, single dose 5 mg/kg
[10] = LPS dose 10, single dose 5 mg/kg
[11] = LPS dose 10, single dose 5 mg/kg, 5 mg/kg
[12] = 0 hours, peptide 5 mg/kg 2 hours after LPS
[13] = 0 hours, peptide 5 mg/kg 24 hours after LPS
[14] = 14 hours, peptide 5 mg/kg 2 hours after LPS
[15] = 14 hours, peptide 5 mg/kg 24 hours after LPS
[16] = 24 hours, peptide 5 mg/kg 2 hours after LPS
[17] = 24 hours, peptide 5 mg/kg 24 hours after LPS
[18] = 48 hours, peptide 5 mg/kg 2 hours after LPS
[19] = 48 hours, peptide 5 mg/kg 24 hours after LPS
[20] = 84 hours, peptide 5 mg/kg 2 hours after LPS
[21] = 84 hours, peptide 5 mg/kg 24 hours after LPS
[22] = LPS dose 8, single dose 5 mg/kg
[23] = LPS dose 8, single dose 5 mg/kg, 5 mg/kg
[24] = LPS dose 9, single dose 5 mg/kg
[25] = LPS dose 9, single dose 5 mg/kg, 5 mg/kg

MTRV was tested, and the “BUN concentration versus the PBS control group (in words)” value ([1]; 5 mg/kg i.v.) was “reduced BUN concentration”, the “mortality versus the PBS control group (in words)” value ([1]; 5 mg/kg i.v.) was “significant reduction in mortality” and the “mortality at 72 hours post-reperfusion” value ([1]; 5 mg/kg i.v. before and after 25 minutes clamping, dead/total) was 2/10. For the same substance, the “BUN after 25 minutes renal ischemia, mean” value (shortened to “BUN … mean”) [1, 4] was 15.09, the “BUN … mean” value [1, 5] was 34.57 and the “BUN … mean” value [1, 6] was 39.8375. The “BUN … mean” value [1, 7] was 7.463, the “mice scored D (dead), effect at t = 48 hours” value (from here on “mice scored D (dead), effect”) [2, 8] was 2 and the “mice with sickness score 1, effect at t = 48 hours” value [2, 8] was 3. For the same substance, the “mice with sickness score 3, effect at t = 24 hours” value [2, 8] was 2, the “mice with sickness score 3, effect at t = 48 hours” value [2, 8] was 1 and the “mice with sickness score 4, effect at t = 24 hours” value (“mice with sickness score 4, effect” for short) [2, 8] was 3. The “mice with sickness score 5, effect at t = 24 hours” value [2, 8] was 1, the “mice with sickness score 2, effect at t = 48 hours” value [2, 9] was 4 and the “mice with sickness score 3, effect at t = 24 hours” value [2, 9] was 3. For the same substance, the “mice with sickness score 4, effect” value [2, 9] was 3, the “mice with sickness score 5, effect at t = 48 hours” value [2, 9] was 2 and the “mice with sickness score 1, effect at t = 48 hours” value [2, 10] was 2. For the same substance, the “mice with sickness score 3, effect at t = 48 hours” value [2, 10] was 1, the “mice with sickness score 5, effect at t = 48 hours” value [2, 10] was 1 and the “mice with sickness score 2, effect at t = 24 hours” value [2, 11] was 2 and 1. For the same substance, the “mice with sickness score 3, effect at t = 24 hours” value [2, 11] was 1 and 2, the “mice with sickness score 4, effect” value [2, 11] was 2 and 1 and the “mice with sickness score 5, effect at t = 24 hours” value [2, 11] was 1 and 2. For the same substance, the “% Survival” value [3, 12] was 100%, the “% Survival” value [3, 13] was 100% and the “% Survival” value [3, 14] was 100%. The “% Survival” value [3, 15] was 100%, the “% Survival” value [3, 16] was 100% and the “% Survival” value [3, 17] was 100%. For the same substance, the “% Survival” value [3, 18] was 50%, the “% Survival” value [3, 19] was 100% and the “% Survival” value [3, 20] was 30%. The “% Survival” value [3, 21] was 100%.

VLPALP (hexamer peptide) was tested, and the “BUN … mean” value [1, 4] was 16.24, the “BUN … mean” value [1, 5] was 62.4 and the “BUN … mean” value [1, 6] was 47.05. For the same substance, the “BUN … mean” value [1, 7] was 8.423, the “protective effect against LPS-induced sepsis (in words)” value ([2]; 5 mg/kg i.p.) was “marked protective effect” and the “mice with sickness score 1, effect at t = 24 hours” value [2, 8] was 5. The “mice with sickness score 1, effect at t = 48 hours” value [2, 8] was 5, the “mice with sickness score 2, effect at t = 24 hours” value [2, 8] was 1 and the “mice with sickness score 2, effect at t = 48 hours” value [2, 8] was 1. For the same substance, the “mice with sickness score 1, effect at t = 24 hours” value [2, 9] was 4, the “mice with sickness score 1, effect at t = 48 hours” value [2, 9] was 5 and the “mice with sickness score 2, effect at t = 24 hours” value [2, 9] was 2. For the same substance, the “mice with sickness score 2, effect at t = 48 hours” value [2, 9] was 1, the “mice with sickness score 0, effect at t = 48 hours” value [2, 22] was 2 and the “mice with sickness score 3, effect at t = 48 hours” value [2, 22] was 1. For the same substance, the “mice with sickness score 1, effect at t = 24 hours” value [2, 23] was 3 and 2, the “mice with sickness score 1, effect at t = 48 hours” value [2, 23] was 3 and 5 and the “mice with sickness score 2, effect at t = 48 hours” value [2, 23] was 2 and 1. The “mice scored D (dead), effect” value [2, 24] was 1, the “mice with sickness score 1, effect at t = 24 hours” value [2, 24] was 2 and the “mice with sickness score 3, effect at t = 48 hours” value [2, 24] was 1. The “mice with sickness score 4, effect” value [2, 24] was 1, the “mice with sickness score 5, effect at t = 48 hours” value [2, 24] was 2 and the “mice with sickness score 2, effect at t = 24 hours” value [2, 25] was 3 and 4. For the same substance, the “mice with sickness score 2, effect at t = 48 hours” value [2, 25] was 2 and 1, the “mice with sickness score 3, effect at t = 24 hours” value [2, 25] was 1 and 2 and the “mice scored D (dead), effect” value [2, 10] was 2. The “mice with sickness score 2, effect at t = 48 hours” value [2, 10] was 2, the “mice with sickness score 3, effect at t = 48 hours” value [2, 10] was 2 and the “mice with sickness score 5, effect at t = 48 hours” value [2, 10] was 1. The “mice with sickness score 1, effect at t = 48 hours” value [2, 11] was 3 and 2, the “mice with sickness score 2, effect at t = 24 hours” value [2, 11] was 3 and 4 and the “mice with sickness score 4, effect” value [2, 11] was 3 and 2. The “% Survival” value [3, 12] was 100%, the “% Survival” value [3, 13] was 100% and the “% Survival” value [3, 14] was 100%. For the same substance, the “% Survival” value [3, 15] was 100%, the “% Survival” value [3, 16] was 100% and the “% Survival” value [3, 17] was 100%. The “% Survival” value [3, 18] was 100%, the “% Survival” value [3, 19] was 0% and the “% Survival” value [3, 20] was 100%. The “% Survival” value [3, 21] was 0%.
